Assay results published in patent US20030206968A1, “Fungicidal mixtures” (priority 1999, published 2003).

Tests used:
Type in all cases: in vivo
Puccinia recondita = assay: Greenhouse, Puccinia recondita on wheat, 1 day curative, plants sprayed twice, once with each compound; conditions: Example 12
Procedure: (§1) The trials are carried out under greenhouse (Examples 1 to 32) or field conditions (Examples 33 to 40) in residual or curative applications. The fungicides are applied in single treatments, or in a combination comprising an azolopyrimidine of formula I and a compound selected from the classes (A), (B) and (C) as defined above. The compounds are applied in form of an aqueous spray mix obtained from a concentrated formulation or the technical material.
(§2) 1. Seed is planted in 6 cm diameter plastic pots and maintained in the greenhouse.
(§3) 2. When the primary leaf is fully expanded in the case of cereals or several leaves are present in the case of dicots, formulated test compounds are sprayed with a three nozzle overhead fungicide sprayer to near run-off. Alternatively, a single nozzle overhead track sprayer is used for application of the compounds to cereals at a rate of 200 l/ha. Plants are then allowed to air-dry.
(§4) 3. Inoculation precedes treatment in the case of curative evaluations and follows treatment in case of residual evaluations. For inoculation of powdery mildew disease, plants are set up on greenhouse benches with bottom watering mats and inoculated by dusting them with conidia from infected plants. Between inoculation and treatment for curative evaluations and between treatment and inoculation for residual evaluations, plants are maintained in the greenhouse with bottom watering.
(§5) For inoculation of non-powdery mildew diseases, an aqueous spore suspension of the pathogen is applied to the plant and the plants are kept 1-2 days in a moist infection chamber before being returned to the greenhouse where they are maintained by bottom watering.
(§6) 4. Disease on the foliage as percent leaf area with disease symptoms/signs is evaluated about 7 days after inoculation. In the case of wheat, the tips and bases of the leaves are excluded from the evaluation. [formula]
(§7) 1. Technical compounds are formulated in a solvent/surfactant system consisting of 5% acetone and 0.05% Tween 20 in deionized water. Compounds are dissolved in acetone prior to addition of the water; the Tween 20 can be added through either the acetone or the water. Dilutions are made using the solvent/surfactant system. Formulated compounds are prepared using deionized water.
(§8) 2. Two kinds of controls are included: Plants treated with the solvent/surfactant solution and inoculated (Solvent Blank). Untreated plants which are inoculated (Inoculated Control).
(§9) Assessments of the diseases took place at the indicated day after the application of the compounds. Per cent infected leaf area infected was evaluated. The efficacy of the compounds/compounds mixtures to control the diseases was calculated by using the formula given above under item 4: […]
(§10) Synergy was calculated using the % disease control values of specific treatments for the two COLBY formula given hereinabove
Fungicidal efficacy of the mixture of Azolopyrimidine C+kresoxim methyl (1 day curative) against Puccinia recondita on wheat Plants sprayed twice, once with each compound. The tank mixes were obtained from a SC formulation containing 100 g Azolopyrimidine C per liter and a WG containing 500 g kresoxim methyl per kg.

Blumeria graminis [1] = assay: Greenhouse, Blumeria graminis on wheat, 4 days residual; conditions: Example 30
Procedure: as §1, §2, §3, §4, §6, §7, §8, §9, §10
Fungicidal efficacy of the mixture of (S)-Azolopyrimidine C in admixture with Azoxystrobin or Trifloxystrobin (4 days residual) against Blumeria graminis on wheat. The tank mixes were obtained from technical material of (S)-Azolopyrimidine C and Azoxystrobin or Trifloxystrobin.

Blumeria graminis [2] = assay: Greenhouse, Blumeria graminis on wheat, 2 days curative; conditions: Example 27
Procedure: as §1, §2, §3, §4, §6, §7, §8, §9, §10
Fungicidal efficacy of the mixture of (S)-Azolopyrimidine C in admixture with Azoxystrobin or Trifloxystrobin (2 days curative) against Blumeria graminis on wheat. The tank mixes were obtained from technical material of (S)-Azolopyrimidine C and Azoxystrobin or Trifloxystrobin.

Septoria tritici [3] = assay: Field test, Septoria tritici on wheat
Procedure: as §1
For the field study formulated Azolopyrimidine A, B or C and formulated compounds from the classes (A), (B) and (C) were used.
as §9, §10
The compounds are applied according to good agricultural practice in the form of an aqueous spray mix obtained from a concentrated formulation or the technical material at a rate of 400 l/ha. The disease control is evaluated according to the formula given for the greenhouse tests.
Fungicidal efficacy of the mixture of Azolopyrimidine C+metconazole in the field against Septoria tritici on wheat The tank mix was obtained from an EC formulation containing 150 g Azolopyrimidine C per liter and a SL formulation containing 60 g metconazole per liter. The observed and expected efficacies with different rates are given in Table XXXIVa (19 days after application) and Table XXXIVb (25 days after application):
Fungicidal efficacy of the mixture of (S)-Azolopyrimidine C+kresoxim methyl in the field against Septoria tritici on wheat The tank mix was obtained from a SC formulation containing 100 g (S)-Azolopyrimidine C per liter and a WG formulation containing 500 g kresoxim methyl per kg. The observed and expected efficacies with different rates are given in Tables XXXVa (7 days after application), XXXVb (22 days after application), XXXVc (34 days after application), and XXXVd (41 days after application):
Fungicidal efficacy of the mixture of Azolopyrimidine A and different cereal fungicides the field against Septoria tritici on wheat 15 days after application The tank mix was obtained from an SC formulation containing 100 g Azolopyrimidine A per liter and commercially available formulations of metconazole, epoxiconazole or propiconazole, respectively.

Rhynchosporium secalis = assay: Greenhouse, Rhynchosporium secalis on barley, 1 day residual; conditions: Example 8; dose rate 100 ppm
Procedure: as §1, §2
2. When the primary leaf is fully expanded in the case of cereals or several leaves are present in the case of dicots, formulated test compounds are sprayed with a three nozzle overhead fungicide sprayer to near run-off. […]
4. Disease on the foliage as percent leaf area with disease symptoms/signs is evaluated about 7 days after inoculation. […]
as §9
Synergy was calculated using the % disease control values of specific treatments for the two COLBY formula given hereinabove […]

Septoria tritici [4] = assay: Greenhouse, Septoria tritici on wheat, 1 day residual; conditions: Example 9
Procedure: as §1, §2, §3, §4, §5, §6, §7, §8, §9, §10
Fungicidal efficacy of the mixture of Azolopyrimidine C+metconazole (1 day residual) against Septoria tritici on wheat The tank mix was obtained from a SC formulation containing 100 g Azoplopyrimidine C per liter and an EC containing 100 g metconazole per liter.

## 5-chloro-6-(2,4,6-trifluorophenyl)-7-(1,1,1-trifluoroprop-2-ylamino)-[1,2,4]triazolo[1,5-a]pyrimidine [(S)-Azolopyrimidine C]
Puccinia recondita; dose rate 25 g/ha
  Observed Efficacy: 25%
Puccinia recondita; dose rate 50 g/ha
  Observed Efficacy: 66%
Puccinia recondita; dose rate 100 g/ha
  Observed Efficacy: 79%
Puccinia recondita; dose rate 200 g/ha
  Observed Efficacy: 97%
Puccinia recondita; dose rate 400 g/ha
  Observed Efficacy: 99%
Blumeria graminis [1]; dose rate 3.1 ppm
  Observed Efficacy: 0%
Blumeria graminis [1]; dose rate 6.3 ppm
  Observed Efficacy: 0%
Blumeria graminis [1]; dose rate 12.5 ppm
  Observed Efficacy: 3%
Blumeria graminis [1]; dose rate 25 ppm
  Observed Efficacy: 11%
Blumeria graminis [1]; dose rate 50 ppm
  Observed Efficacy: 34%
Blumeria graminis [2]; dose rate 1.6 ppm
  Observed Efficacy: 0%
Blumeria graminis [2]; dose rate 3.1 ppm
  Observed Efficacy: 0%
Blumeria graminis [2]; dose rate 6.3 ppm
  Observed Efficacy: 10%
Blumeria graminis [2]; dose rate 12.5 ppm
  Observed Efficacy: 40%
Blumeria graminis [2]; dose rate 25 ppm
  Observed Efficacy: 61%
Blumeria graminis [2]; dose rate 50 ppm
  Observed Efficacy: 81%
Septoria tritici [3]; (S)-Azolopyrimidine C 75 g/ha alone, 41 days after application, field, wheat
  Observed Efficacy: 92
Septoria tritici [3]; Example 35, 7 days after application, dose rate 25 g/ha
  Observed Efficacy: 34%
Septoria tritici [3]; Example 35, 22 days after application, dose rate 25 g/ha
  Observed Efficacy: 74%
Septoria tritici [3]; Example 35, 22 days after application, dose rate 100 g/ha
  Observed Efficacy: 87%
Septoria tritici [3]; Example 35, 34 days after application, dose rate 50 g/ha
  Observed Efficacy: 53%
Septoria tritici [3]; Example 35, 34 days after application, dose rate 100 g/ha
  Observed Efficacy: 70%

## CC(Nc1c(-c2c(F)cc(F)cc2F)c(Cl)nc2ncnn12)C(F)(F)F (stereo not shown) [Azolopyrimidine C, 5-chloro-6-(2,4,6-trifluorophenyl)-7-(1,1,1-trifluoroprop-2-ylamino)-[1,2,4]triazolo[1,5-a]pyrimidine]
Septoria tritici [3]; Example 34, 19 days after application, dose rate 25 g/ha
  Observed Efficacy: 48%
Septoria tritici [3]; Example 34, 25 days after application, dose rate 50 g/ha
  Observed Efficacy: 61%
Septoria tritici [3]; Example 34, 25 days after application, dose rate 75 g/ha
  Observed Efficacy: 13%
Rhynchosporium secalis
  Observed Efficacy: 15%
Septoria tritici [4]; dose rate 2 ppm
  Observed Efficacy: 0%
Septoria tritici [4]; dose rate 5 ppm
  Observed Efficacy: 0%
Septoria tritici [4]; dose rate 8 ppm
  Observed Efficacy: 0%
Septoria tritici [4]; dose rate 25 ppm
  Observed Efficacy: 68%
Septoria tritici [4]; dose rate 40 ppm
  Observed Efficacy: 91%
